# Data from article PMC9378504 (Journal of medicinal chemistry, 2022).
# Experiments:
# NSD2 [1] = biological target: T1, NSD2 (Homo sapiens, UniProt O96028); assay: Western blotting of NSD2 protein level in 293FT cells; format: cell-based
# T1 sequence (O96028 1-1365): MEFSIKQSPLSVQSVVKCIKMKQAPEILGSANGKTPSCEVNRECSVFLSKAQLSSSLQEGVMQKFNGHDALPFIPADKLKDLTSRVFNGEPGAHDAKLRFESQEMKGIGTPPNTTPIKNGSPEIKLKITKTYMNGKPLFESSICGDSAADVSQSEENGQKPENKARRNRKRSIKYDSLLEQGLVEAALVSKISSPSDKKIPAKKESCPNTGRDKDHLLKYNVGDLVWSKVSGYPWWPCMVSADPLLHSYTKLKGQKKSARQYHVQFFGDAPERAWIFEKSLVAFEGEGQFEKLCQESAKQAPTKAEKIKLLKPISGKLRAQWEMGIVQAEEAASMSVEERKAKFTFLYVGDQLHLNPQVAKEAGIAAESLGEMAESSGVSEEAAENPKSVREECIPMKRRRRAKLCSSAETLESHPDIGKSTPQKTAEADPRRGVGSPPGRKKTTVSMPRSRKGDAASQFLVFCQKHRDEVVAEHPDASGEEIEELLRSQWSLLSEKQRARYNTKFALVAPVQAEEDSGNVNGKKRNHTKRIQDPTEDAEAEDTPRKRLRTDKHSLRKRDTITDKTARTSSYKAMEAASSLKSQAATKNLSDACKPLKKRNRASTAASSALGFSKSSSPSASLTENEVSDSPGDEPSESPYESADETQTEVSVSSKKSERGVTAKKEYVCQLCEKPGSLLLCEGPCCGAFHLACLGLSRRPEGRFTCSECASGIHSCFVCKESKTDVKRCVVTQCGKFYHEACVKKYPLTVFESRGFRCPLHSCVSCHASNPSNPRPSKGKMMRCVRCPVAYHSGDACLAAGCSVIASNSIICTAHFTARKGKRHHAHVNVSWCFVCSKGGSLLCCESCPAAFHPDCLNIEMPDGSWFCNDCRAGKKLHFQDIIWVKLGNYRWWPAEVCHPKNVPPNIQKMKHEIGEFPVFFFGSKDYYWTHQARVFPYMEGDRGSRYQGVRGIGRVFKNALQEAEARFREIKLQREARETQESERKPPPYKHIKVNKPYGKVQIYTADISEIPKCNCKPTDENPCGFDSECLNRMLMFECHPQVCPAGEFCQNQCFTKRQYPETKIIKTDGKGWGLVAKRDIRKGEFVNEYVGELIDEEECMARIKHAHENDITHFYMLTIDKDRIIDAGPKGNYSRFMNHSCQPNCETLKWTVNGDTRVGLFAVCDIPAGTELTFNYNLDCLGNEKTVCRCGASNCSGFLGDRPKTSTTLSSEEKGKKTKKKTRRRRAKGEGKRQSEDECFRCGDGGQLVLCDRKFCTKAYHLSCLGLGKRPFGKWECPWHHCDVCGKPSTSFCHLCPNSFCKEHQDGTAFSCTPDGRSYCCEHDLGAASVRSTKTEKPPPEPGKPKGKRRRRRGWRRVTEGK
# NSD2 [2] = biological target: T1, NSD2; assay: Western blotting of NSD2 protein level in CRBN KO 293FT cells; format: cell-based; conditions: 293FT cells with CRISPR-Cas9-mediated KO of CRBN, range of concentrations, 48 h
# IKZF3 [3] = biological target: T2, IKZF3 (Homo sapiens, UniProt Q96SW2+Q9UKT9); assay: Western blotting of IKZF3 protein level in 293FT cells; format: cell-based; conditions: for IKZF3 protein level after pretreatment: 293FT cells, then 5 μM for 6 h
# T2 sequence (Q9UKT9 whole entry): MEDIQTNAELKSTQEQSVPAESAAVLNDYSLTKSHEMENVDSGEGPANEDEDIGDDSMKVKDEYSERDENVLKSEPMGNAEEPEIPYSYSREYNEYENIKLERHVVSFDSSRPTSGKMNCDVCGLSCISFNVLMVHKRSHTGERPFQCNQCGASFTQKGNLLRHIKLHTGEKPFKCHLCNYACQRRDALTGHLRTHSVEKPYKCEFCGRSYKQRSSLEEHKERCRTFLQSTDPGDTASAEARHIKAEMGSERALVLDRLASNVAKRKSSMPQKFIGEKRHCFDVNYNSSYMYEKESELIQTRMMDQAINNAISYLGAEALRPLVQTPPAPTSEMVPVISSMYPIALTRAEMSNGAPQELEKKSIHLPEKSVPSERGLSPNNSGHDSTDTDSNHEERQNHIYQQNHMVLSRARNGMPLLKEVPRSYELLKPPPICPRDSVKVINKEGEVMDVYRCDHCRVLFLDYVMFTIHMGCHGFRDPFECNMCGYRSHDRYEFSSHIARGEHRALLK
# T2 sequence (Q96SW2 whole entry): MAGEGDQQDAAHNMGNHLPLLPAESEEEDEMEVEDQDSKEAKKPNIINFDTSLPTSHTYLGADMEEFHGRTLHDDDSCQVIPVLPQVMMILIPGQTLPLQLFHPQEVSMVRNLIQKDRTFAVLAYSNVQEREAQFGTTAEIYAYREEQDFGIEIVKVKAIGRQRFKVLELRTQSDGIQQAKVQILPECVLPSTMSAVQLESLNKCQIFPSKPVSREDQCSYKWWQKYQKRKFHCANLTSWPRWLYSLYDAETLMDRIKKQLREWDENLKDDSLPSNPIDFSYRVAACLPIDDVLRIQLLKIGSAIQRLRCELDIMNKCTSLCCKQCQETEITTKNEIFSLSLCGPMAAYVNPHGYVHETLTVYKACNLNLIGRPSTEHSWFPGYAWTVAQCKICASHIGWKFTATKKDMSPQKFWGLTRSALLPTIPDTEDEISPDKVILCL
# T2 sequence (Q16531 whole entry partner): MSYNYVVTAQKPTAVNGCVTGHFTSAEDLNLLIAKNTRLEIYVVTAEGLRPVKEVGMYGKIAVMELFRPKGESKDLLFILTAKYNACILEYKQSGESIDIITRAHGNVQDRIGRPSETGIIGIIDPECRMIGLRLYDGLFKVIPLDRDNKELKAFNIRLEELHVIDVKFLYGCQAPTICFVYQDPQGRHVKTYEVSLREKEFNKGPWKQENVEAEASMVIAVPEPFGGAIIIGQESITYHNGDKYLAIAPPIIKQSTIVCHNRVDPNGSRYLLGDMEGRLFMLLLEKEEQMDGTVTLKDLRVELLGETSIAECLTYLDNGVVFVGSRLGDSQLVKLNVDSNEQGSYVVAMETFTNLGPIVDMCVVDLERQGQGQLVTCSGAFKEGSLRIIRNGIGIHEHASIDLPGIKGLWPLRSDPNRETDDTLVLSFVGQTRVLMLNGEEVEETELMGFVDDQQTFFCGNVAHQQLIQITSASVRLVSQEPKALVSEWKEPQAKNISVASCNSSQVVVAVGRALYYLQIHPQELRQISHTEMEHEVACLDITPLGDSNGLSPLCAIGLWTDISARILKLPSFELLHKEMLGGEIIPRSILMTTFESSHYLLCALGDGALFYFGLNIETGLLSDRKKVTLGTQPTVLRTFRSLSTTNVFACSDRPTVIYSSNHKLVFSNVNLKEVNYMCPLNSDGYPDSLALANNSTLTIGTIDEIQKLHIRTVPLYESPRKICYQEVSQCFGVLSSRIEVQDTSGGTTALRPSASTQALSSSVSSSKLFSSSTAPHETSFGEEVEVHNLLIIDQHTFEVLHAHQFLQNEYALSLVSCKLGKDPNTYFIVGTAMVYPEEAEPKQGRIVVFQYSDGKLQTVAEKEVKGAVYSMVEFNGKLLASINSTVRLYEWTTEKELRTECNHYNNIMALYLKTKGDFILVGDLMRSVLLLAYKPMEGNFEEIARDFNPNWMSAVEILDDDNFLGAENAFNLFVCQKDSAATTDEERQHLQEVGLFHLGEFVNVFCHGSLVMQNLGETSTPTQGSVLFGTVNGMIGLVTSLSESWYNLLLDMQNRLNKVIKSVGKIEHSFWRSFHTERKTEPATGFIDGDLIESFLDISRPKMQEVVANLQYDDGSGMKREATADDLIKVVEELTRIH
# IKZF3 [4] = biological target: T2, IKZF3; assay: Western blotting of IKZF3 protein level in CRBN KO 293FT cells; format: cell-based; conditions: 293FT cells with CRISPR-Cas9-mediated KO of CRBN, range of concentrations, 48 h
# NSD2 [5] = biological target: T1, NSD2; assay: Western blotting of NSD2 protein level in KMS11 cells; format: cell-based; conditions: 2.5 μM, 72 h
# NSD2 [6] = biological target: T1, NSD2; assay: Western blotting of NSD2 protein level in H929 cells; format: cell-based; conditions: 2.5 μM, 72 h
# GSPT1 [7] = assay: Western blotting of GSPT1 protein level in KMS11 cells; format: cell-based, Human; conditions: 2.5 μM, 72 h
# GSPT1 [8] = assay: Western blotting of GSPT1 protein level in H929 cells; format: cell-based, Human; conditions: 2.5 μM, 72 h
# IKZF1 [9] = biological target: T3, IKZF1 (Homo sapiens, UniProt Q13422+Q96SW2); assay: Western blotting of IKZF1 protein level in KMS11 cells; format: cell-based; conditions: for IKZF1 degradation after pretreatment: then 5 μM for 6 h
# T3 sequence (Q13422 whole entry): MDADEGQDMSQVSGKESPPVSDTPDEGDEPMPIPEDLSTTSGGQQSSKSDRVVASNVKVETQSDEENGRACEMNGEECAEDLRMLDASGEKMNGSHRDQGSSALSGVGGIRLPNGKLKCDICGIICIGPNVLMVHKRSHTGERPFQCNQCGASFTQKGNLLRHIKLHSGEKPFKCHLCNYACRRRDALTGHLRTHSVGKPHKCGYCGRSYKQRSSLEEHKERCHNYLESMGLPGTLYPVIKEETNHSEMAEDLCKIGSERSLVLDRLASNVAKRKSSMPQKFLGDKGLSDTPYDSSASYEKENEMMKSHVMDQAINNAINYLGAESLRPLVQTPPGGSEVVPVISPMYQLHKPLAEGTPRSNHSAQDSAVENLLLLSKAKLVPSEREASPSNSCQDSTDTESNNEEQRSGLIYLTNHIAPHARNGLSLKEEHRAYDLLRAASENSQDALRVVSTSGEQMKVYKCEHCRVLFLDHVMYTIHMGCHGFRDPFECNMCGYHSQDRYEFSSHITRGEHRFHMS
# T3 sequence (Q96SW2 whole entry): as the sequence (Q96SW2 whole entry) above
# T3 sequence (Q16531 whole entry partner): as the sequence (Q16531 whole entry partner) above
# IKZF1 [10] = biological target: T3, IKZF1; assay: Western blotting of IKZF1 protein level in H929 cells; format: cell-based; conditions: 2.5 μM, 72 h
# IKZF3 [11] = biological target: T2, IKZF3; assay: Western blotting of IKZF3 protein level in KMS11 cells; format: cell-based; conditions: then 5 μM for 6 h
# [12] = system: 20 protein lysine and arginine methyltransferases including NSD1/2/3; assay: Selectivity assay, radioisotope-based filter binding; format: biochemical, human; conditions: 10 μM, in duplicate, SAM 1 μM
# KMS11 cells = assay: Cell growth inhibition assay in KMS11 cells; format: cell-based, Human; conditions: 2.5 μM, 8 days
# H929 cells = assay: Cell growth inhibition assay in H929 cells; format: cell-based, Human; conditions: 2.5 μM, 8 days
# Mouse PK study = format: in vivo; conditions: single IP 50 mg/kg, male Swiss albino mice
# [13] = WT 293FT cells, range of concentrations, 48 h
# [14] = pretreated with 10 nM MLN9708 for 2 h
# [15] = pretreated with 0.5 μM MLN4924 for 2 h
smiles,measurement,setting,value
"O=C(CNc1cccc2c1C(=O)N(C1CCC(=O)NC1=O)C2=O)NCCCOc1ccc(NC(=O)c2ccc(CN(C(=O)c3ccc4c(c3)OCC(=O)N4)C3CC3)cc2)nc1 (stereo not shown) [Compound 9, N-Cyclopropyl-N-(4-((5-(3-(2-((2-(2,6-dioxopiperidin-3-yl)-1,3-dioxoisoindolin-4-yl)amino)acetamido)propoxy)pyridin-2-yl)-carbamoyl)benzyl)-3-oxo-3,4-dihydro-2H-benzo[b][1,4]oxazine-7-carboxamide]",NSD2 protein level on cotreatment,"NSD2 [1]; 293FT cells, 5 μM for 48 h, cotreated with 5 μM UNC6934 during the last 6 h",significantly rescued
same,"NSD2 degradation, time course","NSD2 [1]; 293FT cells, 5 μM, 36 h",some NSD2 degradation
same,"NSD2 degradation, time course","NSD2 [1]; 293FT cells, 5 μM, 48 h",significant degradation
same,"NSD2 degradation, time course","NSD2 [1]; 293FT cells, 5 μM, 72 h",maximum degradation effect
same,NSD2 protein level after washout,"NSD2 [1]; 293FT cells, 5 μM, then washout, 48 h post washout",fully recovered
same,NSD2 protein level,"NSD2 [1]; 293FT cells, 2.5 and 10 μM, 48 h, Figure 2",effectively induced degradation of NSD2 at both 2.5 and 10 μM without a hook effect
same,NSD2 degradation,NSD2 [1]; [13],clear degradation of NSD2 and IKZF3 was observed
same,NSD2 degradation,NSD2 [2],no NSD2 or IKZF3 degradation was detected
same,IKZF3 protein level after pretreatment,IKZF3 [3]; [14],successfully restored the IKZF3 protein level
same,IKZF3 protein level after pretreatment,IKZF3 [3]; [15],successfully restored the IKZF3 protein level
same,IKZF3 degradation,IKZF3 [3]; [13],clear degradation of NSD2 and IKZF3 was observed
same,IKZF3 degradation,IKZF3 [4],no NSD2 or IKZF3 degradation was detected
same,NSD2 degradation,NSD2 [5],effectively degraded NSD2
same,NSD2 degradation,NSD2 [6],effectively degraded NSD2
same,GSPT1 degradation,GSPT1 [7],did not degrade GSPT1
same,GSPT1 degradation,GSPT1 [8],did not degrade GSPT1
same,IKZF1 protein level,"IKZF1 [9]; 2.5 μM, 72 h",clearly reduced the IKZF1 protein level
same,IKZF1 degradation after pretreatment,IKZF1 [9]; [14],at least partially rescued the IKZF1 and IKZF3 degradation
same,IKZF1 degradation after pretreatment,IKZF1 [9]; [15],at least partially rescued the IKZF1 and IKZF3 degradation
same,IKZF1 protein level,IKZF1 [10],clearly reduced the IKZF1 protein level
same,IKZF3 degradation after pretreatment,IKZF3 [11]; [14],at least partially rescued the IKZF1 and IKZF3 degradation
same,IKZF3 degradation after pretreatment,IKZF3 [11]; [15],at least partially rescued the IKZF1 and IKZF3 degradation
same,Inhibition of 20 methyltransferases (selectivity),[12],did not inhibit any of the 20 methyltransferases
same,Cell growth inhibition,KMS11 cells,effectively inhibited the growth
same,Cell growth inhibition,H929 cells,effectively inhibited the growth
same,clinical signs,Mouse PK study; PK study,no clinical signs were observed
same,tolerability,Mouse PK study; PK study,well tolerated
same,maximum plasma concentration,Mouse PK study; mean ± SD from three mice,1.35 ± 0.08 µM
